Molecules are shown by their SMILES.

For the compound `CC(=O)Nc1cc(C2CC2)n[nH]1` [Compound 88, N-(3-cyclopropyl-1H-pyrazol-5-yl)acetamide], the melting point – broadly, the temperature of the solid-liquid transition – was 167 to 171 °C.

Regarding `O=C(Nc1cc(C2CC2)n[nH]1)c1cc2ccccc2s1` [Compound 91, N-(3-cyclopropyl-1H-pyrazol-5-yl)-1-benzothiophene-2-carboxamide], the melting point lay in the range of 238 to 239 °C.

Consider `O=C(CCc1ccccc1)Nc1cc(C2CC2)n[nH]1` [Compound 93, N-(3-cyclopropyl-1H-pyrazol-5-yl)-3-phenylpropanamide], for which the melting point was in the range of 152 to 160 °C.

`COC(=O)c1ccc(C(=O)Nc2cc(C3CC3)n[nH]2)cc1` [Compound 94, Methyl 4-{[(3-cyclopropyl-1H-pyrazol-5-yl)amino]carbonyl}benzoate] returned a melting point of 173 to 174 °C.

For `O=C(Nc1cc(C2CC2)n[nH]1)c1cc2ccccc2[nH]1` [Compound 102, N-(3-cyclopropyl-1H-pyrazol-5-yl)-1H-indole-2-carboxamide], the melting point fell in the range of 268 to 269 °C.

For `O=C(Nc1cc(C2CC2)n[nH]1)c1ccc[nH]1` [Compound 248, N-(3-cyclopropyl-1H-pyrazol-5-yl)-1H-pyrrole-2-carboxamide], the melting point fell in the range of 220 to 221 °C.

For the origin of these results see patent US7034049B1, “3(5)-amino-pyrazole derivatives, process for their preparation and their use as antitumor agents” (Pharmacia Italia S.p.A., priority 1999, dated 2006).
